# Test results reported in US20120052142A1, “BIOLOGICALLY ACTIVE COMPOSITIONS FROM Schisandra chinensis FOR TREATING COLORECTAL CANCER” (Dr. Chang Naturals, LLC, priority 2010, published 2012).
# “Also recorded” adds a separate entry of the source. Read-outs that look alike come from different tables or passages of the source.
# Experiments:
# [1] = test system: human colorectal carcinoma cell line HT29; experiment: MTS cell viability assay, HT-29; assay type: cell-based
# Text: The comestible use of the fruit products and its potential anticancer properties prompted the current investigation as to whether the active constituents could be used to treat colorectal cancer. The robust MTS cell viability assay with the p53-mutant human colon HT-29 cell line served as an assay-guided screening tool for the purification of the active principles of the fruit extract (see further description in the Example section).
# Erythroleukemia K562, human colon HT-29 and breast MCF-7 cancer cell lines were obtained from the American Type Culture Collection (Manassas, Va., USA). All cells were maintained in Dulbecco's modified Eagle's medium (DMEM) supplemented with 10% fetal bovine serum, penicillin (100 U ml^−1) and streptomycin (100 U ml^−1). Cells were incubated at 37° C. in a 5% CO2 humidified atmosphere.
# Cells were seeded at a density of 1.5×10^4 cells/well on a 96-well plate. When the cells reached 60 to 70% confluency, the growth medium was aspirated and the wells were rinsed with pre-warmed PBS. Test compounds at various concentrations or 1% DMSO (vehicle control) were then added and the plates were incubated for 72 h. After incubation, 40 μL of a solution of CellTiter 96 Aqueous One Solution (Promega, Madison, Wis., USA) containing MTS [3-(4,5-dimethylthiazol-2-yl)-5-(3-carboxymethoxyphenyl)-2-(4-sulfophenyl)-2H-tetrazolium)] and an electron coupling reagent (phenazine ethosulfate) were added to each well with an auto-repeat pipetor. The plates were incubated for 3 hours during which time the reagent was bio-reduced into a colored formazan product by the intracellular dehydrogenase enzymes of metabolically active cells. The quantity of formazan produced is directly proportional to the number of living cells in the cultures. The absorbance (A) was measured at 490 nm (reference at 690 nm) on a PowerWave 200 microplate reader (Bio-Tek Instruments). The results were expressed as percent cell viability, calculated for each drug concentration using the formula:
# % Viability=(A treated group/A control group)×100%.
# (100% viability was represented by samples with DMSO vehicle control).
# The half-maximal inhibitory concentration, IC50, values were obtained from the sigmoidal curve by plotting the percentage viability of cells against the drug concentration using Psi-Plot version 9, Poly Software International (Pearl River, N.Y., USA).
# hepatic carcinoma = details: especially in high concentrations; Molecular Medicine Reports 2:725-732, 2009; cited from earlier work
# colon cell line LoVo = details: Planta Medica 2010: 76:1672-1677; cited from earlier work
# [2] = HT29, MTS cell viability, 72 h, average of two independent experiments in triplicate
# [3] = HT-29, from dose-response curves (FIG. 4, FIG. 5), read-out: concentration inhibiting cell growth by 50% (IC50), molar basis
Compound,"Activity IC50 [1, 2] [mg/L]",anti-proliferative activity against HT-29 (in words) ([1]; HT-29),"IC50 [1, 3] [µM]","IC50 ([1]; Homo sapiens, HT-29, HT29, MTS cell viability, 72 h, average of two independent experiments in triplicate, read-out: Activity IC50) [mg/L]","IC50 ([1]; Homo sapiens, HT-29, from dose-response curves (FIG. 4, FIG. 5), read-out: concentration inhibiting cell growth by 50% (IC50), molar basis) [µM]",apoptosis induction in hepatic carcinoma (in words) (hepatic carcinoma),activity against LoVo (in words) (colon cell line LoVo),"anti-proliferative activity against HT-29 (in words) ([1]; HT-29, listed as schisandrin)"
"C/C=C(/C)C(=O)Oc1c(OC)c(OC)cc2c1-c1c(cc(OC)c(OC)c1OC)C[C@](C)(O)[C@@H](C)C2 [Angeloylgomisin H, angeloylgomisin H]",348,moderate activity,696,–,–,–,–,–
"COc1cc2c(c(OC)c1OC)-c1c(cc(OC)c(OC)c1OC)C[C@H](C)[C@@H](C)C2 [Deoxyschisandrin, deoxyschisandrin]",–,–,–,140,336,–,–,–
"COc1cc2c(c(OC)c1OC)-c1c(cc3c(c1OC)OCO3)C[C@H](C)[C@](C)(O)C2 [Gomisin A, gomisin A]",300,–,716,–,–,–,–,–
"COc1cc2c(c(OC)c1OC)-c1c(cc3c(c1OC)OCO3)C[C@H](C)[C@H](C)C2 [Gomisin N, gomisin N]",17,–,43,–,–,induces high apoptotic levels,do not find Gomisin N to be active,–
"COc1cc2c(c(OC)c1OC)-c1c(cc(OC)c(OC)c1OC)C[C@](C)(O)[C@@H](C)C2 [Schisandrin, schisandrin]",>1000,devoid of detectable biological activity,–,–,–,–,–,does not show any activity; also recorded: inactive
